Measurements from US12390426B1, “Use of adamantane compositions and methods of reducing fibrotic tissue” (Ventoux Biosciences, Inc., priority 2024, dated 2025).
Counter-ions that a name gives are not always drawn.

Tests used:
[1] = system: Bleomycin-Induced Dermal Fibrosis; assay: Bleomycin-induced dermal fibrosis animal model; type: in vivo, C57Bl/6 Mice; conditions: 15 mg/kg intraperitoneal once daily days 0-27; bleomycin 20 μg s.c. daily; stated in words only, figure values not given
Text: Animal Model Designed to Determine Efficacy of Memantine for the Treatment of Bleomycin-Induced Dermal Fibrosis
Forty-two normal male C57Bl/6 Mice were obtained from Charles River Laboratories. Mice age at the start of the study were from 6-8 weeks old. Study subjects were allocated as follows: 1 group of 6 mice and 3 groups of 12 mice each. Animals were not replaced during the study.
(§1) Bleomycin from Henry Schein (Cat #: 8700001) was obtained as a lyophilized powder. Unformulated Bleomycin was stored at 4° C. Formulated Bleomycin was prepared by mixing the lyophilized Bleomycin powder with saline to obtain a 0.4 mg/ml solution. Unused unformulated Bleomycin was retained. The prepared Bleomycin solution was aliquoted into 50 μL, 0.4 mg/ml Bleomycin parts and stored at −80° C. Bleomycin was prepared once and daily aliquots were frozen. Frozen aliquots were thawed daily for administration. […] Bleomycin was administered once daily on days 0-27 at 20 μg per subcutaneous injection. Unused formulated Bleomycin was disposed.
Memantine HCl from Selleckchem (Cat #: S2043) was obtained. Unformulated Memantine HCl was stored at −20° C. […]
Animals were dosed with test articles, administered at least 60 minutes prior to Bleomycin or saline injections. All animals were weighed and evaluated daily. […]

[2] = system: long term potentiation; conditions: animal models; cited from earlier work
[3] = system: Alzheimer's disease; conditions: cited from earlier work
[4] = Stability of the formulated dosing solutions; type: physicochemical; conditions: 0.4 mg/ml in saline; room temperature
Description: as §1
Memantine HCl from Selleckchem (Cat #: S2043) was obtained. Unformulated Memantine HCl was stored at −20° C. Memantine was formulated daily by the following procedure: dissolve memantine in a 50/50 mixture of Kolliphor® EL (Sigma, Cat #: C5135)/ethanol for a 4× concentration of 12 mg/ml. Once dissolved, 3 parts MilliQ water is added for a final concentration of 3 mg/ml for dosing (12.5% Kolliphor® EL, 12.5% ethanol, 75% water). Unused unformulated Memantine was disposed. Memantine was formulated daily and administered by intraperitoneal injection once daily on days 0-27 at 15 mg/kg; 0.1 mL/20 g (5 mL/kg). […] Unused formulated Memantine was disposed.

Compound | efficacy at treating fibromatosis conditions [1] | duration of long term potentiation in vivo [2] | learning and memory [2] | cognitive, functional and global endpoints ([3]; three randomized placebo-controlled trials, Alzheimer's disease) | tolerability ([3]; used in Germany for neurological syndromes and cognitive deficits since 1982) | stability of formulated Bleomycin [4]
CC12CC3CC(C)(C1)CC(N)(C3)C2 [Memantine, Memantine HCl] | Effective at Treating Fibromatosis Conditions | prolong the duration of long term potentiation in vivo | improve learning and memory | significant improvements | good tolerability | 
Bleomycin |  |  |  |  |  | stable for a few hours at room temperature
